Laboratory results taken from patent publication US7683031B2, “Short peptides from the ‘2nd loop’ of 7 transmembrane receptor which selectively modulate signal transduction” (Yissum Research Development Company of the Hebrew …, priority 2002, dated 2010).

Experiments:
aortic ring = experiment: Aortic ring assay (capillary growth ex vivo in collagen matrix gel); assay type: cell-based, rat; conditions: for aortic ring neovascularization in presence of G-protein inhibitor PTX / aortic ring neovascularization: S1P 100 μm, R002L103 20 μm, FIG. 4; for aortic ring neovascularization in presence of G-protein inhibitor PTX: PTX 100 nm/ml; for aortic ring neovascularization: without PTX; for neovascularization effect, each agent alone / angiogenetic effect, each agent alone: R002L103 20 μg; for angiogenetic effect, each agent alone: VEGF 12 nm/ml
Method: The following are suitable in vivo or ex vivo modes for angiogenesis: • (1) Aortic ring—where sprouting of newly formed blood vessels is tested whole mounts of aortic rings obtained from rats (see below) • (2) Eye assay—where formation of new blood vessels in the cornea of the animal as a response to an FGF-implanted pellet is determined (see below). • (3) Sponge assay—where infiltration of new blood vessels into a sponge implanted s.c. in an experimental animal is determined (see below) • (4) Regression of pre-formed vasculature in tumors (Benjamin L. E. and Kesshet E. PNAS, 94, 8761-8766, (1997)). • (5) Re-establishment of circulation in dissected vessels in the limbs of experimental animals. Experimental Procedures: 1. Aortic Ring-Assay:
The modification of previously described assay (Nicosia, R. F. and Ottinetti, A. “Growth of microvessels in serum-free matrix culture of rat aorta.” Lab. Invest. 63:115-122. 1990) for capillary growth ex vivo was used. The assay is based on the phenomenon of endothelial cells proliferation from freshly prepared aorta placed into collagen matrix gel, that finally formed new capillary system.
The experiments were carried out on two lines of animals—Sabra and Sprague-Dawley rats, males of 200-250 g-body weight (1-2 month old). Rats were acclimated to vivarium for 4-10 days before their use in study protocol. Each group (from 2 to 4) of the animals was housed in separate cage and fed food and water ad libitum.
Animals were sacrificed by decapitation after ether anesthesia Thoracic aortas were dissected and immediately transferred to a Petri dish with bio-mpm-1. The fibroadipose tissue and small vessels around aorta was carefully removed under a dissecting microscope, 1 mm-long aortic rings were sectioned and extensively (2-3 times) rinsed in bio-mpm-1 containing antibiotics (% cat.) (Nicosia and Ottinetti, 1990).
The collagen matrix gel solution (see above) was added to 24-well plate (0.4 ml to each well) and collagen polymerization was allowed for 15 min at 37° C. The aorta rings were transferred to the collagen gel solution (in order to glue them to the bottom layer of the gel) and then placed to the center of each well. In mice, 3 rings are embedded in the same well. After 15 min incubation of the plates at 37° C. another 0.4 ml of the collagen solution was carefully added on the top of the ring. After the gel is formed 0.4 ml of Serum-Free Endothelial Growth Medium (Rhenium, cat. 17601-030) or bio-mpm-1 (Beit Haemeq cat. 05-060-1) was added to each well. Rings were incubated in 37° c. and 10% CO2. Medium is replaced every 2-3 days.
Compound of the invention were added next day after collagen gel formation in concentration 10-20 uM. compounds were dissolved for 10 mM stock in 100% DMSO. Dilution in 0.1% BSA in PBS to 400 uM stock were done for each AR experiment de novo. The compounds were re-added to AR during each medium changing till well developed capillary system in control or experimental wells.
Fixation was carried out by adding of Buffered Formalin 4% (was obtained from BioLab, cat. 66554) 1.5 ml in each well. An hour later solution was changed to fresh Formalin in order to better fixation (overnight).
We used Crystal Violett (Gencian Violett) 0.02% in Ethanol Abs. as staining solution (1 ml for each well overnight at room temperature). After staining, wells were washed massively with 0.02% Sodium Azide water solution during two or three days till transparent matrix.
Digital pictures were analyzed using ImagePro™ software. The total capillary length of at least 6 AR was measured. Dividing the total capillary length to AD diameter normalized the data.

B16 cells [1] = experiment: Melanogenesis in B16 cells (melanin, absorbance 405 nm); assay type: cell-based; conditions: tbi formulation; for EC50: read-out: EC 50 melanogenesis; for melanogenesis induction: β3-derived peptides up to 2.5 μM, FIG. 14-18
Method: (§1) B16 melanocyet cells were grown in DMEM with 4 mM L-glutamine, supplemented with 10% bovine calf serum in a 37° C. humidified incubator with 5% CO2. The day before the assays, 100 μl of 3×10^4 cells/ml were plated in 96-well microtiter plates overnight.
The day after B16 cells culturing, differential concentrations of stimulator (peptides or αMSH as positive control) were added. The cells were incubated for another 3 days then adding 70 ul of 1N NaOH stopped the reaction. The production of melanin was measured after 24 h as the optical absorbance in […].
“tbi” Formulation: peptides (10 mM final) were dissolved in DMSO (final 8%) and 2M Ammonium Bicarbonate (32% final) were added, the mixture was heated for 40 min then 2M HEPES pH 7.5 60% (final) were added.

cornea of mice = experiment: Eye assay (neovascularization in the cornea after pellet implantation); assay type: in vivo; conditions: five days after implantation; for blood vessels course of growth: FIG. 10
Method: The modification of the assay previously described in “A model of angiogenesis in the mouse cornea” B. M. Kenyon, E. E. Voest, C. C. Chen, E. Flynn J. Folkman and R. J. D'Amato Investigative Ophthalmology & Visual Science, July 1996, Vol. 37, No. 8 1625-1632 was used. The assay is based on the phenomena of formation of new blood vessels in the cornea of mice in response to the implantation in the cornea of a pellet impregnated with FGF.
1. To prepare—Hydron concentrated stock solution (120 mg/ml in ethanol Abs.) • Hydron diluted stock solution (60 mg/ml in ethanol Abs.) • sucralfate stock solution (500 mg/ml in solution S sterile!). • 10 mg peptide.
2. Add 30 μl of solution S to peptide (or 10 μl of solution S and 20 μl of FGF).
3. Add 20 μl of sucralfate stock solution—vortex, speedvac for 5 min (more if needed).
4. Add […] hydron diluted stock solution to sucralfate+FGF+peptide pellet.
Mice were anesthetized with Ketamin/Rompun Solution (for dosage and solutions preparation see standard anesthetic procedure). The eye is topically anesthetized with Localin (Benoxynate HCl 0.4%, Dr. Fisher, Pharmaceutical Labs, P.O.B. 39071, Tel-Aviv 61390). Using a binocular microscope, a central intrastromal linear keratotomy is performed with a surgical blade parallel to the insertion of the lateral rectus muscle. Approximate length of the cut is 0.5-0.6 mm length. The globe is proptosed with a forceps. A lamellar micropocket is dissected toward the temporal limbus using the modified von Graefe knife 2×30 mm. All following procedures must be done without proptosis. A pellet is placed on the corneal surface in the base of the pocket and advanced to the temporal end of the pocket with one arm of the forceps. The distance between pellet and limbal vessel is measured. For FGF containing pellets, the pocket must be extended within 1 mm of the limbus. Antibiotic and antimycotic ointment are applied to the operated eye to prevent infection and additional irritation of the cornea.
Measurements were done at 5th and 7th days after implantation. In the case of high stimulation inspections were done twice a week till full degradation. The maximum vessel length of neovascularization zone, extending from the limbal vessel toward the pellet was measured. The econtiguous circumferential zone of neovascularization was measured as clock hours (where 30° are equals 1 clock hour.)

[2] = test system: β2-adrenergic transfected HEK293 cells; experiment: cAMP assay in β2-adrenergic transfected HEK293 cells; assay type: cell-based; conditions: 10 μM peptide, after 1 h, FIG. 11
Method: The HEK293 cells were grown in Dulbecco's Modified Eagle's medium (DMEM) with 4 mM L-glutamine, supplemented with 10% horse serum in a 37° C. humidified incubator with 5% CO2. HEK293 cells were transfected using the fuGENE 6 Transfection Reagent. The following amounts of each expression plasmid were used for transfection of each well in a 6-well culture plate: 3 ug of pBK-flag β2AR; 3 ug of pRK5-GRK2 or in combination of 1.5 ug of pBK-flag β2AR and pRK5-GRK2. Cells were harvested after 24 h and transferred into 96-well culture plate (10^5 cells/ml) and a cAMP assay was carried out 48 h post transfection.
(§2) At the day of the assay medium was replaced with serum free medium containing 0.5 mM 3-isobutyl-methylxanthine and the experimental peptides were added for 60 min. The incubation was stopped by replacing the medium with lysis regent supplied in a commercial cAMP kit.
(§3) cAMP levels were determined using cAMP enzymeimmunoassay (EIA) system Biotra Amersham Pharmacia Biotech.

B16 cells [3] = experiment: cAMP assay in B16 cells; assay type: cell-based; conditions: 10 μM peptide, after 1 h, FIG. 12
Method: as §1, §2, §3

3T3L1 adipocytes cells = experiment: cAMP assay in 3T3L1 adipocytes cells; assay type: cell-based; conditions: FIG. 13
Method: 3T3L1 fibroblast were maintained in DMEM with 4 mM L-glutamine, supplemented with 10% calf serum in a 37° C. humidified incubator with 5% CO2. To differentiate fibroblast into adipocytes, cells were grown for 2 days after confluence. The media was then changed to DMEM containing 10% fetal bovine serum; 0.5 mM isobutylmethlxanthine; 4 μg/ml dexamethasone. 3 days later cells were maintained in DMEM containing 10% fetal bovine serum for two weeks, after which the cells were used for cAMP assay.
[…] The incubation was stopped by replacing the medium with lysis regent supplied in a commercial cAMP kit.
as §3

With `CCCCCCCCCCCCC/C=C/[C@@H](O)[C@@H](N)COP(=O)(O)O` [S1P, sphingosine-1-phosphate, reference compound] as the molecule, how does the “aortic ring neovascularization in presence of G-protein inhibitor PTX” value (aortic ring) read?
The value was “completely blocked”.

What about the aortic ring neovascularization (aortic ring) of the same molecule?
Its aortic ring neovascularization is “caused neovascularization”.

With “FGF: pro-angiogenetic compound; bFGF, human recombinant, in materials” as the molecule, how does the “neovascularization effect, each agent alone” value (from here on “neovascularization effect”) (aortic ring; FGF 10 ng/ml, FIG. 8) read?
The value was “no effect”.

“GLLRRHS [K024H107, MC1 receptor Loop 2 derived-modified peptide]” was tested. Which EC50 (B16 cells [1]) did it give?
The EC50 was 2000 nM.

What about the melanogenesis induction (B16 cells [1]) of the same molecule?
The melanogenesis induction was “very efficient in inducing melanogenesis”.

What does the source list for “LGLLRRHSI [K024H124, MC1 receptor Loop 2 derived-modified peptide]”?
EC50 (B16 cells [1]): 150 nM; melanogenesis induction (B16 cells [1]): very efficient in inducing melanogenesis

“R002L103: peptide based on sequence SEQ ID NO:3 of the 2nd loop of EDG3 (FIG. 1A) (MRPYDANKR)” was tested. Which “angiogenesis in aortic rings” value (aortic ring; 10 μm and 20 μm R002L103, degree at least equal to that of S1P 100 nm, FIG. 3) did it give?
Its value is “increase angiogenesis in a dose dependent manner”.

What about the capillary length (aortic ring; 20 μm, FIG. 2) of the same molecule?
The capillary length was “decreased”.

And the “neovascularization effect” value (aortic ring; FGF 10 ng/ml, FIG. 8)?
The value was “no effect”.

What about the “neovascularization, combination with FGF” value (aortic ring; R002L103 20 μg + FGF 10 ng/ml, FIG. 8) of the same molecule?
The value was “very significant neovascularization”.

What about the “neovascularization, combination with SCF” value (aortic ring; R002L103 20 μg + SCF 30 nm/ml, FIG. 7) of the same molecule?
Its value is “marked synergism and significant neovascularization”.

And the “neovascularization, combination with VEGF” value (aortic ring; R002L103 20 μg + VEGF 12 nm/ml, FIG. 6)?
Its value is “marked and significant neovascularization”.

What about the “aortic ring neovascularization in presence of G-protein inhibitor PTX” value (aortic ring) of the same molecule?
The value was “completely blocked”.

And the aortic ring neovascularization (aortic ring)?
Its aortic ring neovascularization is “caused neovascularization”.

And the “neovascularization effect” value (aortic ring; SCF 30 nm/ml, FIG. 7)?
The value was “no neovascularization effect”.

And the “angiogenetic effect, each agent alone” value (aortic ring; FIG. 6)?
The value was “hardly any angiogenetic effect”.

And the capillary length (aortic ring; from control to 10 μm, FIG. 2)?
The capillary length was “increased”.

And the capillary thickness (aortic ring; various concentrations of R002L103, FIG. 2)?
The capillary thickness was “directly correlated to the concentration”.

What about the “neovascularization in the eye in response to implantation of a pellet” value (cornea of mice; FIG. 9) of the same molecule?
The value was “marked neovascularization”.

What about the “number of blood vessels compared to VEGF” value (cornea of mice; FIG. 9) of the same molecule?
Its value is “larger number of blood vessels”.

And the “blood vessels course of growth” value (cornea of mice)?
The value was “relatively straight”.

What does the source list for “R013L101: β3-adrenergic Loop 2 derived peptide (GNPLRYGALVT)”?
cAMP production comparing to the control level [2]: 140%; cAMP production comparing to the control level (B16 cells [3]): 900%; level of cAMP increase (3T3L1 adipocytes cells; after 60 min of incubation): 18 fold; melanogenesis induction (B16 cells [1]): failed as melanogenesis inducers

Which “level of cAMP increase” value (3T3L1 adipocytes cells; after 120 min of incubation) does the source give for “R013L102: β3-adrenergic Loop 2 derived peptide (GLRYGALVTK)” here?
The value was “did not affect”.

And the melanogenesis induction (B16 cells [1])?
Its melanogenesis induction is “failed as melanogenesis inducers”.

“R013L103: β3-adrenergic Loop 2 derived peptide (GPLRYGALVT)” was tested. Which “cAMP production comparing to the control level” value [2] did it give?
Its value is “did not affect”.

And the “cAMP production comparing to the control level” value (B16 cells [3])?
The value was “did not affect”.

And the “level of cAMP increase” value (3T3L1 adipocytes cells; after 120 min of incubation)?
The value was 18 fold.

What about the melanogenesis induction (B16 cells [1]) of the same molecule?
The melanogenesis induction was “failed as melanogenesis inducers”.

Which “neovascularization effect” value (aortic ring; SCF 30 nm/ml, FIG. 7) does the source give for SCF: another pro-angiogenetic compound here?
Its value is “no neovascularization effect”.

What does the source list for VEGF?
angiogenetic effect, each agent alone (aortic ring; FIG. 6): hardly any angiogenetic effect; neovascularization in the eye in response to implantation of a pellet (cornea of mice; FIG. 9): able to induce neovascularization; blood vessels course of growth (cornea of mice): more coiled
